Data published in patent US10450260B2, “NO- and H2S-releasing compounds” (RESEARCH FOUNDATION OF THE CITY UNIVERSITY OF NEW YORK, priority 2011, dated 2019).
Read-outs that look alike come from different tables or passages of the source.

What was measured:
[1] = test system: HT-29 human colon cancer cells; test: MTT cell growth inhibition, HT-29; format: cell-based; details: HT-29 cells; for IC50: Homo sapiens
[2] = test system: carrageenan-induced paw edema; test: Carrageenan-induced rat paw edema; format: in vivo; details: for paw volume versus vehicle treated rats (FIG. 2A): P<0.05, four rats in each group; for anti-inflammatory effect on paw swelling compared with parent NSAID: equimolar oral doses (Example 12)
Method: Carrageenan (1%, 100 μL, suspended in sterile saline solution, type IV lamda; Sigma-Aldrich) was subcutaneously injected into the plantar surface of the right hind paw in rat following the protocol described by Winter et al., Proceedings of the Society for Experimental Biology and Medicine 1962, 111:544-547. Paw volume was measured using a water displacement plethysmometer (model 520; IITC/Life Sciences Instruments, Woodland Hills, Calif.) before carrageenan injection and thereafter at 1-h intervals for 6 h. The paw volume measured just before carrageenan injection was used as the control volume. Data are expressed as the change in paw volume (milliliters) at each time point.
Carrageenan, type IV lambda (1%, 100 μL suspended in sterile saline solution), from Sigma Chemicals (St. Louis, Mo.) was subcutaneously injected into the plantar surface of the right hind paw in rat following the protocol described by Winter et al., Proceedings of the Society for Experimental Biology and Medicine 1962, 111:544-547. Paw volume was measured using a water displacement plethysmometer (Model 520, IITC/Life Sciences Instruments, Woodland Hills, Calif.) before carrageenan injection and thereafter at 1 hour intervals for 5 hours. The paw volume measured just prior to carrageenan injection was used as the control volume. Data are expressed as the change in paw volume (mL) at each time point.

PGE2 = PGE2 in rat paw exudates; format: in vivo; details: for PGE2 levels in the paw exudate versus vehicle (FIG. 2B): P<0.01, four rats in each group
Method: Rats were euthanized by asphyxiation in a CO2 chamber. […] The absorbance at 412 nm was measured after 1 h incubation at room temperature. […] Proteins were determined by Biorad assay.
Proteins were determined by Biorad assay.

TNF-α = test: Plasma TNF-α enzyme immunoassay; format: in vivo, rat; details: for plasma TNF-α (FIG. 3): P<0.01 vs vehicle, P<0.01 vs ASA; for plasma TNFα concentration: rats, equimolar oral doses: ASA 180 (1 mmol/kg), NOSH-ASA 477, naproxen 80, NOSH-naproxen 188, sulindac 200, NOSH-sulindac 467 mg/kg, control 11±0.3
Method: Fresh samples of blood from the animals were taken by cardiac puncture into heparin-containing vials. The determination of plasma TNF-α was carried out by an enzyme immunoassay kit from R&D systems (Minneapolis, Minn.). Briefly, each sample (50 μL) was incubated with antibodies specific for rat TNF-α and washed three times with assay buffer. An enzyme-linked polyclonal antibody specific for rat TNF-α conjugated to horseradish peroxidase was then added to the wells. Following washing of unbound antibody-enzyme reagent, a substrate solution (containing tetramethylbenzidine, TMB, plus hydrogen peroxide) was added to the wells. The enzyme reaction yielded a blue product (oxidized TMB) that turned yellow when the stop solution (dilute hydrochloride acid) was added. The intensity of the color was determined by measuring the OD of the yellow color in a standard ELISA plate reader at 450 nm. Sensitivity of this TNF-α assay was determined by adding two standard deviations to the mean optical density value of 20× zero standard replicates and calculating the corresponding concentration. The kit contains all reagents and standards needed for the TNF-α sensitivity assay. The results are expressed as pg/mL.
This was done by an enzyme immunoassay kit from R&D systems (Minneapolis, Minn.) following the protocol described by the manufacturer. Briefly, fresh blood (50 μL) was incubated with antibodies specific for rat TNF-α and washed three times with assay buffer. An enzyme-linked polyclonal antibody specific for rat TNF-α conjugated to horseradish peroxidase was then added to the wells. Following washing of unbound antibody-enzyme reagent, a substrate solution (containing tetramethylbenzidine, TMB, plus hydrogen peroxide) was added to the wells. The enzyme reaction yielded a blue product (oxidized TMB) that turned yellow when the stop solution (dilute hydrochloride acid) was added. The intensity of this was measured at 450 nm. Sensitivity of this TNF-α assay was determined by adding two standard deviations to the mean optical density value of 20× zero standard replicates and calculating the corresponding concentration.

LPS-induced fever = test: Anti-pyretic activity, LPS-induced fever; format: in vivo, rat; details: 2-4 hours after LPS injection
Method: To induce fever, LPS (50 μg/kg, Sigma, St. Louis, Mo., USA) was administered intraperitoneally to the animals an hour before the administration of test drugs as described previously (Pinto L et al., Pharm Pharmacol Communication 1988: 4:502-505). Rectal temperature was measured by inserting a lubricated thermistor probe (external diameter: 3 mm) 2.8 cm into the rectum of the animal. […] Rectal temperatures were taken every hour for 5 hours.

[3] = test system: MIA PaCa2 pancreatic cancer cell xenograft; test: MIA PaCa2 xenograft in athymic nude mice; format: in vivo, mouse
From the text: (§1) Male athymic nude (NU/NU) mice, age 5 weeks, were purchased from Charles River Laboratories, Inc., (Wilmington, Mass.) and were housed according to institutional and NIH guidelines.
(§2) Human colon (SW480), Breast (MCF-7, MDA-MB-231), and pancreas (MIA PaCa2) cancer cells (2×10^6) suspended in Matrigel (BD Biosciences, San Jose, Calif.) 50% v/v were inoculated subcutaneously in the right flanks of each mouse (10 mice per group) using a 1-mL syringe and 22-gauge needles. After 10 days the animals from each implanted cell line were randomly divided into 2 groups (N=5/group) and gavaged daily with either vehicle (1% methylcelloluse) or NOSH-naproxen (100 mg/kg) or NOSH (100 mg/kg), the ADT-OH-butyl nitrate compound that releases H2S and NO, in the case of colon cancer xenografts; or NOSH-aspirin (100 mg/kg body weight) in the breast and pancreatic cancers groups. The tumor size was measured every other day using electronic calipers, the tumor volumes were calculated using the following formula: length×width^2/2. The weights of the mice were also recorded every 3 days. Twenty-seven (27) to thirty (30) days post inoculation, the mice were sacrificed, the tumors collected, weighed, and photographed.

gastric mucosa = test: Gastric damage, ulcer index; format: in vivo, rat; details: rats, oral gavage, equimolar doses: ASA 180, NOSH-ASA 477, naproxen 80, NOSH-naproxen 188, sulindac 200, NOSH-sulindac 467 mg/kg; 6 h post-administration; vehicle UI=0
Method: The institutional animal care and research committees approved all experimental procedures described herein. Male Wistar rats (4 per group) weighing 180-200 g were obtained from Charles River Laboratories International (Wilmington, Mass.). The rats were fed standard laboratory chow and water. Rats were fasted for 48 h with free access to drinking water. […] Stomachs were then rapidly removed, cut along the greatest curvature, and rinsed with ice-cold distilled water. […] Tissues from stomachs were excised and processed for measurement of Prostaglandin E2 (PGE2), malondialdehyde (MDA) and Superoxide dismutase (SOD) activity.

[4] = test system: SW480 colon cancer cell xenograft; test: SW480 xenograft in athymic nude mice; format: in vivo, mouse
From the text: as §1, §2

[5] = 100 mg/kg daily, day 30, vs control

For `CC(=O)Oc1ccccc1C(=O)O` [ASA, aspirin, reference compound], the IC50 ([1]; 48 h, read-out: IC50, 48 h) was 2500 µM, the IC50 ([1]; 72 h, read-out: IC50, 72 h) was 2000 µM and the “change in paw volume ΔV” value ([2]; ASA 0.56 mmol/kg, after 6 hours) was ~0.35 mL. For the same compound, the “change in paw volume ΔV” value ([2]; ASA 0.56 mmol/kg, at 1 hour) was 0.4 mL, the “change in paw volume ΔV” value ([2]; ASA 0.56 mmol/kg, over the next 2 hours (after 1 h)) was ~0.35 mL and the “paw volume versus vehicle treated rats (FIG. 2A)” value [2] was “significant reduction in paw volume at all time points”. For the same compound, the “PGE2 levels in the paw exudate versus vehicle (FIG. 2B)” value (PGE2) was “significant reduction in PGE2 levels”, the “PGE2 levels in paw exudate” value (PGE2; aspirin 0.21 mmol/kg, control 82±2 pg/mg) was 12±3 pg/mg protein and the “increase of plasma TNF-α concentration over control” value (TNF-α; ASA 0.56 mmol/kg) was “about 20 fold”. For the same compound, the “plasma TNF-α concentration” value (TNF-α; ASA 0.56 mmol/kg, control 10±1) was 200 ± 10 pg/mL, the “increase of plasma TNFα concentration over control” value (TNF-α; ASA 1 mmol/kg) was “about 20 fold” and the “plasma TNF-α (FIG. 3)” value (TNF-α) was “significant rise”. The “plasma TNFα concentration” value (TNF-α) was 190 ± 5 pg/mL.

For `O=C(CCCO[N+](=O)[O-])Oc1ccccc1C(=O)Oc1ccc(-c2cc(=S)ss2)cc1` [NOSH-1, 4-(3-thioxo-3H-1,2-dithiol-5-yl)phenyl 2-((4-(nitrooxy)butanoyl)oxy)benzoate], the “reduction of LPS-induced fever compared with parent NSAID” value (LPS-induced fever) was “appeared to be better in reducing LPS-induced fever”, the mean tumor volume ([3]; 100 mg/kg daily gavage, end of study, control 3265±476) was 285±117 mm^3 and the “reduction of tumor mass” value [3, 5] was 75%. The average tumor mass ([3]; 100 mg/kg daily, day 30, control 2.45±2.7) was 0.61 ± 0.29 g, the “mean reduction of tumor volume” value ([3]; 100 mg/kg daily, vs control) was 91% and the “Potency enhancement (ratio of IC50 values ASA/NOSH-1), 48 h” value ([1]; 48 h) was ~125,000 fold. The “Potency enhancement (ratio of IC50 values ASA/NOSH-1), 72 h” value ([1]; 72 h) was ~250,000 fold, the IC50 ([1]; 48 h, read-out: IC50, 48 h) was 0.0197 ± 0.0033 µM and the IC50 ([1]; 72 h, read-out: IC50, 72 h) was 0.0077 ± 0.0022 µM. For the same compound, the “gastric damage score, ulcer index (UI)” value (gastric mucosa) was 2, the “paw volume versus vehicle treated rats (FIG. 2A)” value [2] was “significant reduction in paw volume at all time points” and the “change in paw volume ΔV” value ([2]; high dose NOSH-1 0.52 mmol/kg, after 1-2 hours) was 0.45 mL. The “change in paw volume ΔV” value ([2]; high dose NOSH-1 0.52 mmol/kg, over the next 4 hours (to 6 h)) was 0.35 mL, the “change in paw volume ΔV” value ([2]; low dose NOSH-1 0.21 mmol/kg, after 1 hour) was 0.5 mL and the “change in paw volume ΔV” value ([2]; low dose NOSH-1 0.21 mmol/kg, by 3 hours) was 0.6 mL. For the same compound, the “change in paw volume ΔV” value ([2]; low dose NOSH-1 0.21 mmol/kg, over the next 3 hours (to 6 h)) was ~0.4 mL, the PGE2 levels in paw exudate (PGE2; NOSH-1 0.21 mmol/kg) was 42 ± 3 pg/mg and the PGE2 levels in paw exudate (PGE2; NOSH-1 0.52 mmol/kg) was 21 ± 4 pg/mg. The “PGE2 levels in the paw exudate versus vehicle (FIG. 2B)” value (PGE2) was “significant reduction in PGE2 levels”, the “plasma TNF-α concentration” value (TNF-α; NOSH-1 0.21 mmol/kg) was 55 ± 2 pg/mL and the “plasma TNF-α concentration” value (TNF-α; NOSH-1 0.52 mmol/kg) was 40 ± 3 pg/mL. The “plasma TNF-α (FIG. 3)” value (TNF-α) was “significantly less” and the “plasma TNFα concentration” value (TNF-α) was 75 ± 1 pg/mL.

With `CC(C(=O)Oc1ccc(-c2cc(=S)ss2)cc1)c1ccc2cc(OC(=O)CCCO[N+](=O)[O-])ccc2c1` (stereo not shown) [NOSH-7, 6-(1-oxo-1-(4-(3-thioxo-3H-1,2-dithiol-5-yl)phenoxy)propan-2-yl)naphthalen-2-yl 4-(nitrooxy)butanoate] the “reduction of LPS-induced fever compared with parent NSAID” value (LPS-induced fever) was “appeared to be better in reducing LPS-induced fever”, the “gastric damage score, ulcer index (UI)” value (gastric mucosa) was 2 and the mean tumor volume ([4]; 100 mg/kg daily gavage, end of study, control 2098±603) was 379±73 mm^3. For the same compound, the “reduction of tumor mass” value [4, 5] was 55%, the average tumor mass ([4]; 100 mg/kg daily, day 30, control 1.42±0.48) was 0.63 ± 0.11 g and the “mean reduction of tumor volume” value ([4]; 100 mg/kg daily, vs control) was 82%. For the same compound, the “anti-inflammatory effect on paw swelling compared with parent NSAID” value [2] was “even lower inflammatory response compared to naproxen” and the “plasma TNFα concentration” value (TNF-α) was 48 ± 2 pg/mL.

`CC1=C(CC(=O)Oc2ccc(OC(=O)CCCO[N+](=O)[O-])c(C(=O)Oc3ccc(-c4cc(=S)ss4)cc3)c2)c2cc(F)ccc2/C1=C/c1ccc([S+](C)[O-])cc1` (stereo not shown) [NOSH-8, (E)-4-(3-thioxo-3H-1,2-dithiol-5-yl)phenyl 5-(2-(5-fluoro-2-methyl-1-(4-(methylsulfinyl)benzylidene)-1H-inden-3-yl)acetoxy)-2-((4-(nitrooxy)butanoyl)oxy)benzoate] was tested, and the “gastric damage score, ulcer index (UI)” value (gastric mucosa) was 10, the “anti-inflammatory effect on paw swelling compared with parent NSAID” value [2] was “the same anti-inflammatory response as sulindac” and the “plasma TNFα concentration” value (TNF-α) was 50 ± 3 pg/mL.

With `CC1=C(CC(=O)O)c2cc(F)ccc2/C1=C\c1ccc([S+](C)[O-])cc1` (stereo not shown) [sulindac, reference compound] the “gastric damage score, ulcer index (UI)” value (gastric mucosa) was 130 and the “plasma TNFα concentration” value (TNF-α) was 230 ± 5 pg/mL.
